The values below come from patent publication US11186564B2, “Dual NAV1.2/5HT2a inhibitors for treating CNS disorders” (Sunovion Pharmaceuticals Inc., priority 2016, dated 2021).

Broadly, the IC50 is the midpoint of a concentration-inhibition curve.

Where two headings read alike, the source gives them in different places.

The target in test [1] is T1, recombinant human serotonin receptor 5-HT2A (Homo sapiens, UniProt P28223).
T1 construct: expressed in transfected cells; method B: loaded with Ca2+ dye
Kind of test: 5-HT2A antagonist Ca2+ assay in CHO-K1 cells (method A aequorin luminescence / method B FLIPR fluorescence). It is filed as cell-based. The conditions noted are these: antagonist mode vs EC80 of reference agonist, method A or B, read-out: 5HT2A IC50. Put shortly: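 IC50 was obtained by nonlinear regression of percent inhibition of the EC80 agonist Ca2+ response in CHO-K1 cells stably expressing human 5-HT2A. The readout was aequorin luminescence with agonist injected 15 min after compound (A), or Ca2+-dye fluorescence on FLIPR with serotonin as agonist (B).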

The target of test [2] is human sodium channel NaV1.2 (Homo sapiens, UniProt Q99250). Put plainly: NaV1.2 inhibition, automated patch-clamp (Q-Patch HTX), slow inactivated state (state C). It is filed as cell-based. The following applies: for inhibition at 1 µM: 1 μM compound, read-out: NaV1.2 (% inh), 1 μM. The source says:
In vitro method for NaV1.2 inhibition assays: The methods utilized to assess the inhibitory activity of compounds on NaV1.2 were based on the methods described by Liu et al. [Liu Y, Beck E J, & Flores C M (2011): Validation of a patch clamp screening protocol that simultaneously measures compound activity in multiple states of the voltage-gated sodium channel Nav1.2. Assay Drug Development Technology 9, 628-634]. For these electrophysiology assays, a cell line (Chinese Hamster Ovarian K-1 cells (CHO K-1)) engineered to stably express human sodium channel NaV1.2 was purchased from Millipore Corporation (catalog no. CYL3023). The electrophysiology measurements were performed using automated patch-clamp methods on a Q-Patch HTX instrument by scientists at Evotec AG under contract with Sunovion.
The solutions utilized for the Qpatch experiments were similar buffered solutions to those described by Liu et al. [Liu Y, Beck E J, & Flores C M (2011)]. The extracellular solution contained 140 millimolar sodium chloride, 4 millimolar potassium chloride, 2 millimolar calcium chloride, 1 millimolar magnesium chloride, 10 millimolar 4-(2-hydroxyethyl)-1-piperazineethanesulfonic acid (HEPES), and 10 millimolar glucose (pH adjusted to 7.4 with sodium hydroxide). The intracellular solution contained 100 millimolar cesium fluoride, 45 millimolar cesium chloride, 10 millimolar HEPES, 5 millimolar ethylene glycol tetraacetic acid (EGTA), and 5 millimolar glucose (pH adjusted to 7.2 with cesium hydroxide).
The biophysical experiments of Lui et al. [Liu Y, Beck E J, & Flores C M (2011)] were replicated to assess the fast, slow and total inactivation characteristics of the human Nav1.2 channel
Based upon results from studies of the fast, slow and total inactivation characteristics of the human Nav1.2 channel, a voltage protocol involving a sequence of consecutive pulses of current was used to measure channel activity in several states [Liu Y, Beck E J, & Flores C M (2011)]. The monolayer of CHO K-1 cells stably expressing human sodium channel NaV1.2 (hNaV1.2 CHO cells) was maintained in the Qpatch instrument at a potential of −100 millivolts (mV) except when the voltage protocol was being executed. The first pulse in the protocol involved a 100 millisecond depolarization to 0 mV to enable measurement of channel availability in the closed state (state A). The potential was then maintained at −90 mV for 15 milliseconds, followed by a five millisecond period of depolarization to 0 mV to enable measurement of channel availability after partial recovery from fast inactivation (state B). Next, the potential was maintained at −90 mV for 300 milliseconds, followed by ten seconds at −50 mV, 15 milliseconds at −90 mV, and finally another five millisecond period of depolarization to 0 mV to enable measurement of channel availability after additional recovery from fast inactivation and significant entry into the slow inactivated state (state C). Finally, after an additional 300 millisecond period at −90 mV, another five millisecond period of depolarization to 0 mV was employed to enable measurement of channel availability after partial recovery from the slow inactivated state (state D). Measurements of activity at state C were used to assess the activity of the NaV1.2 channel in the slow inactivated state. Comparison of activity after addition of test compounds or reference compounds with activity after addition of vehicle only provided a measure of percent remaining activity from which percent inhibition was calculated. […] A slight modification of this protocol was utilized to provide measurements as a function of compound concentration, which enabled IC50 values to be determined. IC50 values were calculated by non-linear least squares regression of the data (percent inhibition of ion channel NaV1.2 activity in the slow inactivated state) onto equation (1): % inhibition=100%/(1+(IC50/[compound]) equation (1)
J Pharmacol Exp Ther. 2008 July; 326(1):89-99.].

[3] abbreviates: hNaV1.2 CHO cells, slow inactivated state, read-out: NaV1.2 IC50.
Setting [4] is: hNaV1.2 CHO cells, slow inactivated state.
Setting [5] is: reference compound, Test 1, read-out: IC50 (μM) for NaV1.2 slow inactivated state, Test 1.
Setting [6] is: reference compound, Test 2, read-out: IC50 (μM) for NaV1.2 slow inactivated state, Test 2.
The mark [7] stands for this setting: reference compound, Test 3, read-out: IC50 (μM) for NaV1.2 slow inactivated state, Test 3.

Chain of human sodium channel NaV1.2 (Q99250 whole entry): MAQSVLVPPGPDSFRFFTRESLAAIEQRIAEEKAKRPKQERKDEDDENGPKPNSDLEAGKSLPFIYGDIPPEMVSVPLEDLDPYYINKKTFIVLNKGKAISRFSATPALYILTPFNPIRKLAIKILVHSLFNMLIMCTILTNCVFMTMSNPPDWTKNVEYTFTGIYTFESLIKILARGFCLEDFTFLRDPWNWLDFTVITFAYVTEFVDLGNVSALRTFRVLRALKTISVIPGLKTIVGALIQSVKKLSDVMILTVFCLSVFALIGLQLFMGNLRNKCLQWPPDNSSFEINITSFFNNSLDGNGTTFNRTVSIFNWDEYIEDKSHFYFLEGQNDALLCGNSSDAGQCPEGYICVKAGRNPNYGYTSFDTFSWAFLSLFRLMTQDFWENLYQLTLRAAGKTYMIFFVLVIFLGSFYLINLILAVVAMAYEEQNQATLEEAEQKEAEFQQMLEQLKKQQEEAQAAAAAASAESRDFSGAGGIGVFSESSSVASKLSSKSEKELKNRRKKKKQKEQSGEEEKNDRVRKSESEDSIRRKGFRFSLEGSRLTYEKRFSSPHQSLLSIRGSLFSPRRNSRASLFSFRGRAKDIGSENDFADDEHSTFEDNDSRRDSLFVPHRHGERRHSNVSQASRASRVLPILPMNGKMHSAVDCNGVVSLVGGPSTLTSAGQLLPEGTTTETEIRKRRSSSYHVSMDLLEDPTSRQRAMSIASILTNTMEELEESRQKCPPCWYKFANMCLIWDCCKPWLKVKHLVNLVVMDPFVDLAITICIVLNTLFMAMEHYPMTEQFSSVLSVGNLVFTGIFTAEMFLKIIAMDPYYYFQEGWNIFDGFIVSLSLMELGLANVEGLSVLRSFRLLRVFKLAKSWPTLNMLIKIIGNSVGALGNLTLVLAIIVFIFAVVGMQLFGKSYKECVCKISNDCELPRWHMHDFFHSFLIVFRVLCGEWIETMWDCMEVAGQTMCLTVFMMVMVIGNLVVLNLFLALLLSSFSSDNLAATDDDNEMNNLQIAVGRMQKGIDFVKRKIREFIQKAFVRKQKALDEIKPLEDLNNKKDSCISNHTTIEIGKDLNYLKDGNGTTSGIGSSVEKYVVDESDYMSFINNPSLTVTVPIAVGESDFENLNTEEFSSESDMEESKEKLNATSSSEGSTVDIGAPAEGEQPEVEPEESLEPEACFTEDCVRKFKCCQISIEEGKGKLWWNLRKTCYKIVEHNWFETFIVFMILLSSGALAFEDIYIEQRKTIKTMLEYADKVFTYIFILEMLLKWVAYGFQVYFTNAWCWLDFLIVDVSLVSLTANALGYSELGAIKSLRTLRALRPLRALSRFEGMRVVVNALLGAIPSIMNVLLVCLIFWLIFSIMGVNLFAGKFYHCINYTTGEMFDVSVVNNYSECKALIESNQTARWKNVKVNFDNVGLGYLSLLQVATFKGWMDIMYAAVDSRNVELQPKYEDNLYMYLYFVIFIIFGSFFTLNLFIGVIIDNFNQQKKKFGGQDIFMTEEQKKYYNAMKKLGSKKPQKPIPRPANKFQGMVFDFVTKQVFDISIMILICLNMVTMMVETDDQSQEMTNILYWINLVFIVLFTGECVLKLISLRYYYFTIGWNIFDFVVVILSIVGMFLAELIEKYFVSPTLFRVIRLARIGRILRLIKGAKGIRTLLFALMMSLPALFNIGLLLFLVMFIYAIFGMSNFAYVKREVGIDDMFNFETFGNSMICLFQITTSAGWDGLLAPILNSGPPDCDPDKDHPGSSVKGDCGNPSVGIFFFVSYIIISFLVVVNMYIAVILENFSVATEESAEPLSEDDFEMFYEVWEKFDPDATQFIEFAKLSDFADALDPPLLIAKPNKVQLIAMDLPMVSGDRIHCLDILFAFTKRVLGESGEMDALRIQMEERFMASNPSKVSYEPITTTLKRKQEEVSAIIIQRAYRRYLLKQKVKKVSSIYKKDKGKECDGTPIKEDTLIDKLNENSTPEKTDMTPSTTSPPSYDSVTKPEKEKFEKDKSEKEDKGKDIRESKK
T1 sequence (P28223 whole entry): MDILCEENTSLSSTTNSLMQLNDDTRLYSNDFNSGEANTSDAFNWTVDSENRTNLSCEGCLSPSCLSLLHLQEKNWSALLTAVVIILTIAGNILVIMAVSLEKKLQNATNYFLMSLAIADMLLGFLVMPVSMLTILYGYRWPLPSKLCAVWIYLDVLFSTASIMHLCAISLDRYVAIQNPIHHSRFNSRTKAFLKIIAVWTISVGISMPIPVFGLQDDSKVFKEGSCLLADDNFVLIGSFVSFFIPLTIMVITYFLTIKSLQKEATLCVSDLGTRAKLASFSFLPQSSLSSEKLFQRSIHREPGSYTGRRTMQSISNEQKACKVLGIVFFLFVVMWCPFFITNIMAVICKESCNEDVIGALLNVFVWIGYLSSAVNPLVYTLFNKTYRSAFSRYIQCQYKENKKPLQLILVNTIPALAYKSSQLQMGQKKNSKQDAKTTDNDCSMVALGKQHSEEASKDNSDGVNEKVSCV

With `c1ccc(OC2COC3(C2)CN(CC2CCc4ccccc42)C3)cc1` (single isomer, unassigned) [Compound 362, 2-((2,3-dihydro-1H-inden-1-yl)methyl)-7-phenoxy-5-oxa-2-azaspiro[3.4]octane], the IC50 worked out at 500 nM in test [1] and 6.37 µM in test [2] (setting [3]).
In the same order, the values of `c1ccc(O[C@@H]2COC3(C2)CN(C[C@@H]2CCc4ccccc42)C3)cc1` (single isomer, unassigned) [Compound 364] are 80 nM and 0.69 µM.
Consider `c1ccc(O[C@H]2COC3(C2)CN(C[C@H]2CCc4ccccc42)C3)cc1` (single isomer, unassigned) [Compound 365], for which the IC50 is 220 nM in test [1] and 2.18 µM in test [2] (setting [3]).
Taken in the same sequence, the figures for `c1ccc(O[C@H]2COC3(C2)CN(C[C@@H]2CCc4ccccc42)C3)cc1` (single isomer, unassigned) [Compound 367] were 280 nM and 0.39 µM.
In the same order, the values of `c1ccc([C@@H]2COC3(CCN(C[C@@H]4CCc5ccccc54)CC3)C2)cc1` (single isomer, unassigned) [Compound 376] are 20 nM and 0.51 µM.
In the case of `c1ccc([C@H]2COC3(CCN(C[C@H]4CCc5ccccc54)CC3)C2)cc1` (single isomer, unassigned) [Compound 377], the values for the IC50 in test [1] and in test [2] (setting [3]) were 30 nM and 0.79 µM, respectively.
For the compound `c1ccc([C@H]2COC3(CCN(C[C@@H]4CCc5ccccc54)CC3)C2)cc1` (single isomer, unassigned) [Compound 378], the IC50 in test [1] was 60 nM; in test [2] (setting [3]), 0.77 µM.
In the same order, the values of `c1ccc([C@@H]2COC3(CCN(C[C@H]4CCc5ccccc54)CC3)C2)cc1` (single isomer, unassigned) [Compound 379] are 40 nM and 0.29 µM.
Consider `c1ccc(O[C@H]2COC3(CCN(C[C@H]4CCc5ccccc54)CC3)C2)cc1` (single isomer, unassigned) [Compound 381], for which the IC50 in test [1] was 20 nM; in test [2] (setting [3]), 0.29 µM.
Taken in the same sequence, the figures for `c1ccc(O[C@H]2COC3(CCN(C[C@@H]4CCc5ccccc54)CC3)C2)cc1` (single isomer, unassigned) [Compound 382] were 60 nM and 1.21 µM.
`c1ccc(O[C@@H]2COC3(CCN(C[C@@H]4CCc5ccccc54)CC3)C2)cc1` (single isomer, unassigned) [Compound 383]: the concentration for half-maximal inhibition (IC50) stood at 340 nM in test [1] and 0.11 µM in test [2] (setting [3]).
On to `c1ccc(O[C@@H]2COC3(CCN(C[C@H]4CCc5ccccc54)CC3)C2)cc1` (single isomer, unassigned) [Compound 384], for which the IC50 in test [1] was 300 nM; in test [2] (setting [3]), 0.29 µM.
In the same order, the values of `COc1ccccc1OC1CCN(CC2Cc3ccccc3C2)[C@@H](C)C1` (single isomer, unassigned) [Example 147] are 70 nM and 1.53 µM.
Taken in the same sequence, the figures for `COc1ccc2c(c1)C(CN1CC3CCC1CN3c1ccccc1)CC2` (single isomer, unassigned) [Example 310] were 30 nM and 0.7 µM.
In the same order, the values of `c1ccc(C2COC3(CCN(CC4CCc5ccccc54)CC3)C2)cc1` (single isomer, unassigned) [Example 375, 8-((2,3-dihydro-1H-inden-1-yl)methyl)-3-phenyl-1-oxa-8-azaspiro[4,5]decane] are 260 nM and 0.35 µM.
Turning to `c1ccc(OC2COC3(CCN(CC4CCc5ccccc54)CC3)C2)cc1` (single isomer, unassigned) [Example 380, 8-((2,3-dihydro-1H-inden-1-yl)methyl)-3-phenoxy-1-oxa-8-azaspiro[4.5]decane], the figures for the IC50 in test [1] and in test [2] (setting [3]) were 150 nM and 0.12 µM, respectively.
As for `Fc1ccc(O[C@@H]2CCN(CC3CCc4ncccc43)C2)cc1` (stereo partly drawn) [Example 3, 5-(((R)-3-(4-fluorophenoxy)pyrrolidin-1-yl)methyl)-6,7-dihydro-5H-cyclopenta[b]pyridine], the IC50 in test [1] was 1880 nM. Besides, the inhibition at 1 µM in test [2] (setting [4]) was -5%.
As to `Fc1ccc(O[C@H]2CCN(CC3CCc4cccnc43)C2)cc1` (stereo partly drawn) [Example 8, 7-(((S)-3-(4-fluorophenoxy)pyrrolidin-1-yl)methyl)-6,7-dihydro-5H-cyclopenta[b]pyridine], the IC50 in test [1] was determined as 980 nM; in test [2] (setting [3]), 7.45 µM.
As for `OC1(CN2CC[C@@H](Oc3ccc(F)cc3)C2)COCc2ccccc21` (stereo partly drawn) [Example 9, 4-(((R)-3-(4-fluorophenoxy)pyrrolidin-1-yl)methyl)isochroman-4-ol], in test [1], the IC50 was determined as 600 nM. Besides, in test [2] (setting [4]), the inhibition at 1 µM worked out at 1%.
As to `OC1(CN2CC[C@H](Oc3ccc(F)cc3)C2)COCc2ccccc21` (stereo partly drawn) [Example 10, 4-(((S)-3-(4-fluorophenoxy)pyrrolidin-1-yl)methyl)isochroman-4-ol], the IC50 in test [1] was found to be 310 nM. The inhibition at 1 µM in test [2] (setting [4]) is 3%.
As to `Fc1ccc(O[C@@H]2CCN(CC3COCc4ccccc43)C2)cc1` (stereo partly drawn) [Example 11, (3R)-3-(4-fluorophenoxy)-1-(isochroman-4-ylmethyl)pyrrolidine], in test [1], the IC50 was found to be 590 nM. Further, the inhibition at 1 µM in test [2] (setting [4]) was 29%.
Take `Fc1ccc(O[C@H]2CCN(CC3COCc4ccccc43)C2)cc1` (stereo partly drawn) [Example 12, (3S)-3-(4-fluorophenoxy)-1-(isochroman-4-ylmethyl)pyrrolidine]: the IC50 in test [1] came out at 300 nM; in test [2] (setting [3]) it was 3.23 µM.
In the case of `COc1ccc2c(c1)C(CN1CCN(c3ccccc3)CC1)CC2` (stereo not drawn) [Example 54, 1-((6-methoxy-2,3-dihydro-1H-inden-1-yl)methyl)-4-phenylpiperazine], the IC50 in test [2] (setting [3]) turned out to be 2.64 µM.
On the same count and under the same terms, to `COc1ccc2c(c1)C(C)(CN1CCC(Oc3ccccc3OC)CC1)CC2` (stereo not drawn) [Example 97, 1-((6-methoxy-1-methyl-2,3-dihydro-1H-inden-1-yl)methyl)-4-(2-methoxyphenoxy)piperidine] belongs 0.08 µM.
On to `c1ccc(CCN2CCC3(CCc4ccccc4O3)CC2)cc1` [Example 427, l′-phenethylspiro[chromane-2,4′-piperidine]], for which the inhibition at 10 µM in test [2] (10 μM compound, hNaV1.2 CHO cells, slow inactivated state, read-out: NaV1.2 (% inh), 10 μM) was 81%.
In the case of `NC(=O)N1c2ccccc2C=Cc2ccccc21` [carbamazepine, reference compound], the results for the 50% inhibitory concentration (IC50) in test [2] (setting [5]) and in test [2] (setting [6]) were 19 µM and 22 µM, respectively.
`COC[C@@H](NC(C)=O)C(=O)NCc1ccccc1` [lacosamide, reference compound] registered an IC50 in test [2] of 65 µM.
On to `Nc1nnc(-c2cccc(Cl)c2Cl)c(N)n1` [lamotrigine, reference compound], for which the IC50 was determined as 34 µM in test [2] (setting [5]), 33 µM in test [2] (setting [6]) and 25 µM in test [2] (setting [7]).
Regarding `CN1CCN(c2ncc(-c3cc(Cl)cc(Cl)c3Cl)c(N)n2)CC1` [sipatrigine], the IC50 stood at 1.6 µM in test [2] (setting [5]); 2.8 µM in test [2] (setting [6]); 0.6 µM in test [2] (setting [7]); 0.5 µM in test [2] (reference compound, Test 4, read-out: IC50 (μM) for NaV1.2 slow inactivated state, Test 4).
